Values quoted from earlier work, collected in patent US20240285564A1, “USE OF (S)-3-AMINO-4-(DIFLUOROMETHYLENYL)CYCLOPENT-1-ENE-1-CARBOXYLIC ACID FOR GASTROINTESTINAL TRACT DISORDERS AND AS AN IMMUNOMODULATORY AGENT” (Ovid Therapeutics Inc., priority 2023, published 2024).

What was measured:
[1] = molecular target: alanine aminotransferase (Ala-AT)
[2] = molecular target: aspartate aminotransferase (Asp-AT)
OAT = molecular target: T1, OAT (Homo sapiens, UniProt P04181)
T1 sequence (P04181 36-439 limits assumed): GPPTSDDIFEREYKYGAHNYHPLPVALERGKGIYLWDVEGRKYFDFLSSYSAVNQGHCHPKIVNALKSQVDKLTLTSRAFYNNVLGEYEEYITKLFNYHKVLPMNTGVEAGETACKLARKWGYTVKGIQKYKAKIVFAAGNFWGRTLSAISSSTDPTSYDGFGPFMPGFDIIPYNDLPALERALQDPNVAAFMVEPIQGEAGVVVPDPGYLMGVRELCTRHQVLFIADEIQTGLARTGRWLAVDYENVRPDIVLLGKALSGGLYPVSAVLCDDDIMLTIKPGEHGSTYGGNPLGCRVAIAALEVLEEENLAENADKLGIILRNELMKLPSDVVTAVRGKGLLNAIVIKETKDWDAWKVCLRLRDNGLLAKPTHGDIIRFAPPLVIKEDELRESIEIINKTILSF

[3] = read-out: IC50 (reversible inhibition)

Row | SMILES | IC50 [1, 3] [mM] | IC50 [2, 3] [mM] | kintact (OAT) [min⁻¹] | kintact/KI (OAT) [mM⁻¹ min⁻¹] | times more efficient an inactivator of OAT than CPP-115 (OAT; relative to CPP-115) [times] | inactivation or inhibition of off-target enzyme [1] | inactivation or inhibition of off-target enzyme [2] | Ki (OAT) [µM]
1 | N[C@H]1C=C(C(=O)O)CC1=C(F)F [(S)-3-amino-4-(difluoromethylenyl)cyclopent-1-ene-1-carboxylic acid] | > 4 | > 4 | 0.025 | 7.6 | 9.0 | – | – | –
2 | N[C@H]1C[C@@H](C(=O)O)CC1=C(F)F [CPP-115, (1S,3S)-3-amino+difluoromethylenyl-1-cyclopentanoic acid, reference compound] | – | – | 0.097 | – | – | not to inactivate or inhibit | not to inactivate or inhibit | 116
